# Laboratory results from US7202280B2, “Methods for the treatment and prevention of pancreatitis and for induction of liver regeneration” (priority 2002, dated 2007).
# Values joined by “and” are separate entries in the source; they are usually repeats but may differ in a detail not shown here. Equal values may be shown once.
# Tests used:
# Format in all cases: in vivo, rat
# MT-SSAT transgenic rats = assay: Zinc-induced pancreatitis, prevention by pretreatment with analogue (plasma α-amylase, pancreatic histology); design: key to Histological scoring (0 to 4): Edema / Histological scoring (0 to 4): Inflammation: 0 (absent); 1 (minimal); 4 (maximal); details: for Histological scoring (0 to 4): Edema / Histological scoring (0 to 4): Inflammation / Histological scoring (0 to 4): Necrosis / Histological scoring (0 to 4): Vacuolization: Zn; for Plasma α-amylase activity / acinar necrosis (pancreatic histology): transgenic rats; for Plasma α-amylase activity: zinc 10 mg/kg; for acinar necrosis (pancreatic histology): zinc
# Procedure: FIG. 2. Plasma α-amylase activity in syngenic and transgenic rats after zinc and methylspermidine. The animals were treated as in FIG. 1. Six to eight animals in each group. *p<0.05 as compared with zinc-treated animals. ***p<0.001 as compared with untreated animals. Me-spd, methylspermidine.
# FIGS. 3a–3d. Histology of pancreas of transgenic rats after zinc and methylspermidine. The animals were treated as in FIGS. 1a–1d. Magnification ×125. […] The animals received zinc (10 mg/kg) 24 h before sacrifice without (FIG. 3b) or with methylspermidine (50 mg/kg) either as single dose 4 h before zinc (FIG. 3c) or as two doses 20 h and 4 h before zinc (FIG. 3d).
# (§1) Formalin-fixed pancreatic specimens were embedded in paraffin, cut into 5-μm-thick slices, and stained with hematoxylin/eosin. The stained sections were coded and scored by the participating gastroenterologist (K.-H. H.) according to the method of Niederau et al. (Niederau, C., Liddle, R. A., Ferrell, L. D., and Grendell, J. H. (1986) J. Clin. Invest. 78, 1056–1063).
# FIG. 3 depicts pancreatic histology in transgenic animals after saline (FIG. 3a), after zinc alone (FIG. 3b), after zinc and single dose of the analogue (FIG. 3c) and after zinc and two doses of the analogue (FIG. 3d). The acinar structure of untreated transgenic animal is entirely normal (FIG. 3a) whereas zinc induced distinct pancreatitis with more than 50% of the acinar cells undergoing necrosis (FIG. 3b). […] Table A summarizes the histological scoring of pancreatic specimens from all animals. […] A single dose of the analogue administered prior to zinc reduced the extent of necrosis while after two repeated doses of the compound very little, if any, necrosis was present (Table A).
# MT-SSAT (UKUR30) transgenic rats received zinc (10 mg/kg i.p.) 24 h before sacrifice either alone or in the combination with Me2SPM (25 mg/kg i.p.) administered twice 20 h and 4 h before zinc. There were three animals in each group. Plasma amylase activity was measured as a marker of pancreatitis.
# rats = assay: Toxicity of spermine derivatives in rats (deaths); details: 50 mg/kg twice/24 h
# Source text: It is likely to be the case with the methylated analogues as well.
# [1] = test system: rats with cerulein-induced pancreatitis; assay: Cerulein-induced pancreatitis
# Procedure: FIG. 7 Effect of pancreatic-associated edema by methylspermidine in rats with cerulein-induced pancreatitis. The animals received cerulein 24 h before sacrifice with or without methylspermidine (50 mg/kg) as a single dose 4 h before cerulein. Three to five animals in each group. Me-Spd, methylspermidine. Administration of cerulein induces a non-necrotizing pancreatitis in rodents. Cerulein-induced pancreatitis is characterized by a pronounced increase in plasma/serum amylase activity.
# [2] = test system: SSAT transgenic rats (UKUR30); assay: Treatment of zinc induced acute pancreatitis in SSAT transgenic rats: survival and severity (histology, plasma amylase, mortality); design: key to Edema: 0 (absent); 1 (minimal); 4 (maximal); details: for Edema / Necr. / P-amyl: single animals
# Procedure: as §1
# Transgenic UKUR30 female rats (weighting about 200 g) were used for the experiments. Pancreatitis was initiated with zinc 10 mg/kg treatment. Experiments were separated in five different parts (Exp. 1–5). Animals treated with α-MeSPD received 50 mg/kg i.p at the indicated time point(s). The pooled data from all of the experiment is shown in tables 4 A/B/C/D. First histological signs of pancreatic failure were evident within 6 h after the zinc. Pancreatic failure steadily increases until 24 hours when the first animals died. Within 48 hours mortality was almost 70% in control zinc treated rats.
# Tables 4 A/B/C/D present the natural course of zinc induced pancreatitis. Histological scoring along with plasma amylase activity is shown as a measure of severity of pancreatitis. Tissue zinc and polyamine levels and SSAT activity were determined to verify the response of each animal to the treatment. No other data than the number of death animals is shown from deceased animals. Transgenic UKUR30 female rats weighting about 200 grams were used for the experiment. Zinc was injected i.p. 10 mg/kg to initiate acute pancreatitis. Animals treated with MeSpd received one 50 mg/kg dosage i.p. at the indicated time point(s). At indicated time points live animals were sacrificed and pancreas was subjected to further analysis. […] Values for polyamines are expressed as pmoles/mg/wet weight. SSAT pmoles/10 min/mg wet weight.
# [3] = MT-SSAT transgenic rats, zinc 10 mg/kg i.p. 24 h, Me2SPM 25 mg/kg i.p. 20 h and 4 h before zinc
# [4] = Zn 24 h, MeSpd 50 mg/kg i.p. at 3 h/8 h
# [5] = Zn 24 h, MeSpd 50 mg/kg i.p. at 6 h/12 h
# [6] = Zn 24 h, MeSpd 50 mg/kg i.p. at 12 h
# [7] = Zn 48 h, MeSpd 50 mg/kg i.p. at 3 h/8 h
# [8] = Zn 48 h, MeSpd 50 mg/kg i.p. at 4 h/24 h
# [9] = Zn 48 h, MeSpd 50 mg/kg i.p. at 12 h/24 h
smiles,measurement,setting,value
"CC(N)CCNCCCCNCCC(C)N (stereo not drawn) [bis-α-methylspermine, 1,12-dimethylspermine]",Pancreatic histology,MT-SSAT transgenic rats; [3],modest edema
same,plasma amylase,MT-SSAT transgenic rats; [3],2744 ± 837
same,prevention of pancreatitis,"MT-SSAT transgenic rats; rats with depleted polyamine pools, 25 mg/kg 2 injections i.p. 20/4 hours prior to zinc",prevents pancreatitis
same,deaths,rats,a number of rats died
"CC(N)CCNCCCCN (stereo not drawn) [α-methylspermidine, 1-methylspermidine]",amylase levels,[1]; cerulein-induced pancreatitis,does not normalize amylase levels
same,pancreatitis-associated edema,"[1]; cerulein, single dose 50 mg/kg",reduces the pancreatitis-associated edema
same,Histological scoring (0 to 4): Edema,"MT-SSAT transgenic rats; Sg rats, 1 × Me-spd 50 mg/kg",1
same,Histological scoring (0 to 4): Inflammation,"MT-SSAT transgenic rats; Sg rats, 1 × Me-spd 50 mg/kg",1
same,Histological scoring (0 to 4): Necrosis,"MT-SSAT transgenic rats; Sg rats, 1 × Me-spd 50 mg/kg","0 (0, 0–5%)"
same,Histological scoring (0 to 4): Vacuolization,"MT-SSAT transgenic rats; Sg rats, 1 × Me-spd 50 mg/kg","0 (0, 0–5%)"
same,Histological scoring (0 to 4): Edema,"MT-SSAT transgenic rats; Sg rats, 2 × Me-spd 50 mg/kg",1
same,Histological scoring (0 to 4): Inflammation,"MT-SSAT transgenic rats; Sg rats, 2 × Me-spd 50 mg/kg",0
same,Histological scoring (0 to 4): Necrosis,"MT-SSAT transgenic rats; Sg rats, 2 × Me-spd 50 mg/kg","0 (0, 0–5%)"
same,Histological scoring (0 to 4): Vacuolization,"MT-SSAT transgenic rats; Sg rats, 2 × Me-spd 50 mg/kg","0 (0, 0–5%)"
same,Histological scoring (0 to 4): Edema,"MT-SSAT transgenic rats; Tg rats, 1 × Me-spd 50 mg/kg",1
same,Histological scoring (0 to 4): Inflammation,"MT-SSAT transgenic rats; Tg rats, 1 × Me-spd 50 mg/kg",1
same,Histological scoring (0 to 4): Necrosis,"MT-SSAT transgenic rats; Tg rats, 1 × Me-spd 50 mg/kg","2 (2, 15–35%)"
same,Histological scoring (0 to 4): Vacuolization,"MT-SSAT transgenic rats; Tg rats, 1 × Me-spd 50 mg/kg","0 (0, 0–5%)"
same,Histological scoring (0 to 4): Edema,"MT-SSAT transgenic rats; Tg rats, 2 × Me-spd 50 mg/kg",1
same,Histological scoring (0 to 4): Inflammation,"MT-SSAT transgenic rats; Tg rats, 2 × Me-spd 50 mg/kg",1
same,Histological scoring (0 to 4): Necrosis,"MT-SSAT transgenic rats; Tg rats, 2 × Me-spd 50 mg/kg",0–1
same,Histological scoring (0 to 4): Vacuolization,"MT-SSAT transgenic rats; Tg rats, 2 × Me-spd 50 mg/kg","1 (1, 5–15%)"
same,Plasma α-amylase activity,MT-SSAT transgenic rats; single dose 50 mg/kg 4 h before zinc,decreased after a single dose
same,Plasma α-amylase activity,MT-SSAT transgenic rats; two doses 50 mg/kg 20 h and 4 h before zinc,fully normalized after two repeated doses
same,acinar necrosis (pancreatic histology),MT-SSAT transgenic rats; single dose before zinc,very little necrosis was present
same,acinar necrosis (pancreatic histology),MT-SSAT transgenic rats; two doses before zinc,none after two doses
same,Edema,[2]; [4],0 (2×) and 2 (2×)
same,Necr.,[2]; [4],"0 (0, 0–5%) (2×) and 3 (3, 35–50%) and 4 (4, >50%)"
same,P-amyl,[2]; [4],2743 U/l and 20380 U/l and 11420 U/l and 2801 U/l
same,Edema,[2]; [5],0 (3×) and 1 (2×) and 2 (2×) and 3 and 4
same,Necr.,[2]; [5],"0 (0, 0–5%) (4×) and 4 (4, >50%) (4×) and 2 (2, 15–35%)"
same,P-amyl,[2]; [5],2686 U/l and 2153 U/l and 2572 U/l and 30970 U/l and 42250 U/l and 30860 U/l and 28400 U/l and 5110 U/l and 25050 U/l
same,Edema,[2]; [6],1 and 2 (2×) and 3
same,Necr.,[2]; [6],"0 (0, 0–5%) and 4 (4, >50%) (2×) and 3 (3, 35–50%)"
same,P-amyl,[2]; [6],3048 U/l and 17170 U/l and 31310 U/l and 18960 U/l
same,Mortality %,"[2]; Zn 24 h, MeSpd treatment yes",0%
same,Number of death animals,"[2]; Zn 24 h, MeSpd treatment yes, 17 animals",0
same,Edema,[2]; [7],3 (2×) and 2
same,Necr.,[2]; [7],"4 (4, >50%)"
same,P-amyl,[2]; [7],5867 U/l and 5117 U/l and 29880 U/l
same,Edema,[2]; [8],0 (3×) and 1 and 3
same,Necr.,[2]; [8],"0 (0, 0–5%) (4×) and 4 (4, >50%)"
same,P-amyl,[2]; [8],1924 U/l and 2740 U/l and 2908 U/l and 2591 U/l and 3943 U/l
same,Edema,[2]; [9],3 (2×) and 0 and 2
same,Necr.,[2]; [9],"4 (4, >50%) (3×) and 0 (0, 0–5%)"
same,P-amyl,[2]; [9],86840 U/l and 2693 U/l and 36470 U/l and 3382 U/l
same,Mortality %,"[2]; Zn 48 h, MeSpd treatment yes",8%
"CC(N)CCNCCCCNCCCN (stereo not drawn) [α-methylspermine, 1-methylspermine]",deaths,rats,a number of rats died
